From PMC8767159, “Multiparameter Optimization of Trypanocidal Cruzain Inhibitors With In Vivo Activity and Favorable Pharmacokinetics” (Frontiers in Pharmacology, 2022) come the findings set out here.

The nature of this data set: Acute toxicity and open-field test in female Swiss mice. Format: in vivo. The protocol: Thirty-day-old female Swiss mice weighing 20–25 g and procured from the Center for the Development of Experimental Models for Medicine and Biology (CEDEME/UNIFESP) served as the subjects for these experiments. […] Rodent chow and water were available ad libitum throughout the experiments.
The compound, solubilized in 10% DMSO aqueous solution, was administered orally in a single dose of 150 and 300 mg/kg of body weight in female Swiss mice. Parameters related to behavior, autonomic functions, neurological activity, and mortality were assessed as toxicity signs. Soon after the administration of the compound, mice were placed in a circular open-field arena (40 cm diameter) with 50-cm-high walls to assess motor deficits. […] After this period, toxicity signs were assessed once a day for two consecutive weeks. The reference drug BZ at 150 mg/kg and vehicle (10% DMSO) were administered as controls.

Setting [1] is: single oral dose 150 and 300 mg/kg, 2 weeks of observation.

On to `NC(=O)Cn1c(CCNC(=O)COc2ccccc2)nc2ccccc21` [Compound 28], for which the “Locomotor deficits (open-field test)” value (oral 150 and 300 mg/kg) is given as “did not cause locomotor deficits”. Under setting [1], the Mortality entry is “no mortality” and the “Toxicity signs (behavior, autonomic functions, neurological activity)” value was “No toxicity signs”.
